Data set [1] relates to Mus musculus. Put plainly: Hypouricemic activity in potassium oxonate-induced hyperuricemic Kunming mouse model assessed as decrease in serum uric acid level at 5 mg/kg, IG pre-administered via gavage twice daily for 5 times followed by potassium oxonate injection for 1 hrs prior to last dose by phosphotungstic acid method. The data set is classed as functional. Particulars: for Activity: time 5.0 day.

The species entered for the next data set is Homo sapiens. Put plainly: Inhibition of uricase (unknown origin) using uric acid as substrate at 112.5 mg/L preincubated with compounds for 15 mins followed by uric acid addition.
Data set [2] deals with Mus musculus. The data set can be described thus: Hypouricemic activity in potassium oxonate-induced hyperuricemic Kunming mouse model assessed as decrease in serum uric acid level at 5 mg/kg, IG pre-administered via gavage twice daily for 5 times followed by potassium oxonate injection for 1 hrs prior to last dose by phosphotungstic acid method relative to control. The format is functional. Set-up: scale not given: the % may be the effect or the level left. Particulars: time 5 day.

The subject of data set [3] is Mus musculus. The data set can be described thus: Hypouricemic activity in potassium oxonate-induced hyperuricemic Kunming mouse model assessed as serum XOD level at 10 mg/kg, IG pre-administered via gavage twice daily for 5 times followed by potassium oxonate injection for 1 hrs prior to last dose. The format is functional. Particulars: time 5 day.
Data set [4] has as its system Mus musculus. Put plainly: Hypouricemic activity in potassium oxonate-induced hyperuricemic Kunming mouse model assessed as serum urate level at 10 mg/kg, IG pre-administered via gavage twice daily for 5 times followed by potassium oxonate injection for 1 hrs prior to last dose by phosphotungstic acid method. The format is functional. Particulars: time 5 day.
Data set [5] deals with Xanthine dehydrogenase/oxidase (Homo sapiens, UniProt P47989). Put plainly: Inhibition of XOD (unknown origin) using xanthine as substrate assessed as inhibition of uric acid generation at 0.54 mg/L preincubated for 15 mins followed by xanthine addition and measured by spectrophotometric analysis relative to control.
The subject of data set [6] is Mus musculus. The data set can be described thus: Hypouricemic activity in potassium oxonate-induced hyperuricemic Kunming mouse model assessed as serum XDH level at 10 mg/kg, IG pre-administered via gavage twice daily for 5 times followed by potassium oxonate injection for 1 hrs prior to last dose. The conditions noted are these: time 5 day. The format is functional.

Data set [7] has as its system Rattus norvegicus. The data set can be described thus: Anti-hyperuricemic activity against potassium oxonate-induced hyperuricemic Sprague-Dawley rat model assessed as fractional excretion of urate at 12.5 mg/kg, po pre-administered via gavage twice daily for 5 times followed by potassium oxonate injection for 1 hrs prior to last dose and measured after 3 hrs relative to control. The data set is classed as functional. The conditions noted are these: time 123 hrs.

Data set [8] concerns Rattus norvegicus. The data set can be described thus: Anti-hyperuricemic activity against potassium oxonate-induced hyperuricemic Sprague-Dawley rat model assessed as excretion of urate per volume of glomerular filtration measured per body surface area of 0.0311 m2 at 12.5 mg/kg, po pre-administered via gavage twice daily for 5 times followed by potassium oxonate injection for 1 hrs prior to last dose and measured after 3 hrs. The data set is classed as functional. The conditions noted are these: time 123 hrs.

The test system of data set [9] is Rattus norvegicus. Put plainly: Anti-hyperuricemic activity against potassium oxonate-induced hyperuricemic Sprague-Dawley rat model assessed as urinary urate at 12.5 mg/kg, po pre-administered via gavage twice daily for 5 times followed by potassium oxonate injection for 1 hrs prior to last dose and measured after 3 hrs. The data set is classed as functional. Particulars: time 123 hrs.

For data set [10], the system named is Rattus norvegicus. The data set can be described thus: Anti-hyperuricemic activity against potassium oxonate-induced hyperuricemic Sprague-Dawley rat model assessed as glomerular load of urate measured per body surface area of 0.0311 m2 at 12.5 mg/kg, po pre-administered via gavage twice daily for 5 times followed by potassium oxonate injection for 1 hrs prior to last dose and measured after 3 hrs. The conditions noted are these: time 123 hrs. The format is functional.

In data set [11] the test system is Mus musculus. Put plainly: Anti-hyperouricemic activity in uric acid-induced hyperuricemic Kunming mouse model assessed as decrease in serum uric acid level at 25 mg/kg, IG pre-administered with uric acid for 30 mins followed by compound treatment and measured after 2 hrs by phosphotungstic acid method. The data set is classed as functional, organism-based.
In data set [12] the test system is Rattus norvegicus. Put plainly: Anti-hyperuricemic activity against potassium oxonate-induced hyperuricemic Sprague-Dawley rat model assessed as serum urate level at 12.5 mg/kg, po pre-administered via gavage twice daily for 5 times followed by potassium oxonate injection for 1 hrs prior to last dose and measured after 3 hrs. The data set is classed as functional. Particulars: time 123 hrs.

Data set [13] has as its system Rattus norvegicus. Put plainly: Anti-hyperuricemic activity against potassium oxonate-induced hyperuricemic Sprague-Dawley rat model assessed as clearance of creatinine measured per body surface area of 0.0311 m2 at 12.5 mg/kg, po pre-administered via gavage twice daily for 5 times followed by potassium oxonate injection for 1 hrs prior to last dose and measured after 3 hrs. Particulars: time 123 hrs. The data set is classed as functional.

For data set [14], the system named is Rattus norvegicus. The data set can be described thus: Anti-hyperuricemic activity against potassium oxonate-induced hyperuricemic Sprague-Dawley rat model assessed as serum creatinine level at 12.5 mg/kg, po pre-administered via gavage twice daily for 5 times followed by potassium oxonate injection for 1 hrs prior to last dose and measured after 3 hrs. The format is functional. Particulars: time 123 hrs.

Data set [15] relates to Rattus norvegicus. The data set can be described thus: Anti-hyperuricemic activity against potassium oxonate-induced hyperuricemic Sprague-Dawley rat model assessed as serum urea nitrogen level at 12.5 mg/kg, po pre-administered via gavage twice daily for 5 times followed by potassium oxonate injection for 1 hrs prior to last dose and measured after 3 hrs. The data set is classed as functional. Particulars: time 123 hrs.

The subject of data set [16] is Rattus norvegicus. Put plainly: Anti-hyperuricemic activity against potassium oxonate-induced hyperuricemic Sprague-Dawley rat model assessed as clearance of urate measured per body surface area of 0.0311 m2 at 12.5 mg/kg, po pre-administered via gavage twice daily for 5 times followed by potassium oxonate injection for 1 hrs prior to last dose and measured after 3 hrs. The data set is classed as functional. The conditions noted are these: time 123 hrs.

Data set [17] relates to Rattus norvegicus. Put plainly: Anti-hyperuricemic activity against potassium oxonate-induced hyperuricemic Sprague-Dawley rat model assessed as urinary creatinine level at 12.5 mg/kg, po pre-administered via gavage twice daily for 5 times followed by potassium oxonate injection for 1 hrs prior to last dose and measured after 3 hrs. The format is functional. Particulars: time 123 hrs.

Data set [18] concerns Rattus norvegicus. The data set can be described thus: Anti-hyperuricemic activity against potassium oxonate-induced hyperuricemic Sprague-Dawley rat model assessed as urinary urate level at 12.5 mg/kg, po pre-administered via gavage twice daily for 5 times followed by potassium oxonate injection for 1 hrs prior to last dose and measured after 3 hrs. The conditions noted are these: time 123 hrs. The data set is classed as functional.

In data set [19] the test system is Rattus norvegicus. Put plainly: Anti-hyperuricemic activity against potassium oxonate-induced hyperuricemic Sprague-Dawley rat model assessed as urine volume at 12.5 mg/kg, po pre-administered via gavage twice daily for 5 times followed by potassium oxonate injection for 1 hrs prior to last dose and measured after 3 hrs. The format is functional. The conditions noted are these: time 123 hrs.

Data set [20] relates to Mus musculus. The data set can be described thus: Hypouricemic activity in potassium oxonate-induced hyperuricemic Kunming mouse model assessed as decrease in serum XOD level at 1 mg/kg, IG pre-administered via gavage twice daily for 5 times followed by potassium oxonate injection for 1 hrs prior to last dose. The data set is classed as functional, organism-based. Particulars: time 5.0 day.

Data set [21] can be described thus: Toxicity in Kunming mouse assessed as decrease in serum uric acid level at 1 mg/kg. The data set is classed as organism-based. The conditions noted are these: in vivo.

Calls of active or inactive are those of the source. No cut-off for these calls is given here.

Xanthine dehydrogenase/oxidase, sequence (P47989 whole entry): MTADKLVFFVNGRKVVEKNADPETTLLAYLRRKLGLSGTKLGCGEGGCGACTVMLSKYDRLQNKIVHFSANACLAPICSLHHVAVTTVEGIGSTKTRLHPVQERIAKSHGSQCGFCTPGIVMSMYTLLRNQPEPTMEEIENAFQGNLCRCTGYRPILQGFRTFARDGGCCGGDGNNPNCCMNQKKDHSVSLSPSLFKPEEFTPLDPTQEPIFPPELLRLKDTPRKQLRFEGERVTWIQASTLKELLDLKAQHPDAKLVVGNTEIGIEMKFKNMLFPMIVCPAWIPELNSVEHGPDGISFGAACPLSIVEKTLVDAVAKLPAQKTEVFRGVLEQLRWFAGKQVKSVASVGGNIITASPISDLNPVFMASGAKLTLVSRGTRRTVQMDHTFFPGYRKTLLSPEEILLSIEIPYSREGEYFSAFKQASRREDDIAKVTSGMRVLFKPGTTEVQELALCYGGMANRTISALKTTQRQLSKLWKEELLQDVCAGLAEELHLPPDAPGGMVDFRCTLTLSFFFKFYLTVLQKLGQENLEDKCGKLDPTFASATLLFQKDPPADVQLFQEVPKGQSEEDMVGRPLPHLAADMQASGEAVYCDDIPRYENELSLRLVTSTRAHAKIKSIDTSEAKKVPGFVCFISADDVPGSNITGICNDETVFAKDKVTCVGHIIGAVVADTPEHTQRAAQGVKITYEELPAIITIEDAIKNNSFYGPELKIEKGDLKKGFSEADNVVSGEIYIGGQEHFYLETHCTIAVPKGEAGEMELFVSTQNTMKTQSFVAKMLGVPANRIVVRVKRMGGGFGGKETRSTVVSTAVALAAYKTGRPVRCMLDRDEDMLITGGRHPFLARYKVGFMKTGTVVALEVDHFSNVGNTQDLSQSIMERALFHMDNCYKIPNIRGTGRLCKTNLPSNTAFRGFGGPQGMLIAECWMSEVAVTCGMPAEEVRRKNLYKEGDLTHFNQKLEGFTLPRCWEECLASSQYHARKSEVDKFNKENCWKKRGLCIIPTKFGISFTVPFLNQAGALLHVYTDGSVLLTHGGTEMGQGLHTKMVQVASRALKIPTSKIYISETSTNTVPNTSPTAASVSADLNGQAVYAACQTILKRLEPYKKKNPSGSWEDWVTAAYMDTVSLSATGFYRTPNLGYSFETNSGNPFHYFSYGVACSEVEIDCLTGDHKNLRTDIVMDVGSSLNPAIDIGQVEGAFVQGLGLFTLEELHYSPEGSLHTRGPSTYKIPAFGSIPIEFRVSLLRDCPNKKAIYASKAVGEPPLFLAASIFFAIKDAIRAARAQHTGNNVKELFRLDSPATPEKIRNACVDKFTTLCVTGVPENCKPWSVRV

Take `CC(C)=CCc1c(O)cc2oc3cc(O)c(O)c(CC=C(C)C)c3c(=O)c2c1O`: the outcome in the data set with Mus musculus [1] was inactive.
Same read-out and setting: in the case of `COc1c(O)cc2oc3cc4c(c(O)c3c(=O)c2c1CC=C(C)C)C=CC(C)(C)O4` it was “inactive”.
For `O=C(O)c1nc(=O)[nH]c(=O)[nH]1`, in the data set listed under Homo sapiens, the inhibition (in general, the drop in the measured response relative to a control, in per cent) came to 96.5%.
As to `Oc1ncnc2[nH]ncc12` [ALLOPURINOL], the Activity in the data set with Mus musculus [2] was 64%; in the data set on Mus musculus [3], 11.46 U/L; in the data set on Mus musculus [4], 180.26 µmol/L; in the data set with Mus musculus [6], 2.59 U/L. Further, in data set [5], the inhibition at 0.54 µg/mL was 42.7%. In addition, the “serum uric acid level” value in the data set on Mus musculus [1] (time 5 day) worked out at 117.86 µmol/L.
On to `CCc1oc2ccccc2c1C(=O)c1cc(Br)c(O)c(Br)c1` [BENZBROMARONE], for which the Activity in the data set on Rattus norvegicus [7] was 66%; in the data set with Rattus norvegicus [8], 5.3 µmol/L; in the data set with Rattus norvegicus [9], 392 µmol; with Rattus norvegicus [10], 3.8 µmol/min; in the data set on Rattus norvegicus [12], 258 µmol/L; with Rattus norvegicus [13], 14.6 mL/min. Moreover, the Activity in the data set with Rattus norvegicus [14] amounted to 56.1 µmol/L; in the data set on Rattus norvegicus [15], 9.7 mmol/L; with Rattus norvegicus [16], 8.4 mL/min; with Rattus norvegicus [17], 1 mmol/L; in the data set with Rattus norvegicus [18], 2.7 mmol/L; in the data set with Rattus norvegicus [19], 4.6 mL. Further, in the data set on Mus musculus [11], the outcome was Active.
For the compound `Cc1nc(-c2ccc(OCC(C)C)c(C#N)c2)sc1C(=O)O` [FEBUXOSTAT], the result in the data set on Mus musculus [20] was Active. The Activity result in data set [21] was “Toxic”.

For the origin of these results see ChEMBL document CHEMBL5226379, “Hypouricemic Actions of the Pericarp of Mangosteen in Vitro and in Vivo” (J Nat Prod, 2023).
